The values below come from a melting point compilation (Tetko et al.; mined from patent text by program, amines drawn as free bases though some values may be those of a salt).

Molecules are shown by their SMILES. Residues, ends and D or L forms follow the SMILES beside them. *: point of attachment. Cbz = O=C(OCc1ccccc1)*

The melting point is the temperature of the solid-liquid transition. Compound `CON1C=C2N=NC3=C(N2C1)N(c1ccccn1)CC(C)=C3` came in with a melting point of 216 to 220 °C.
For the compound `CC(=O)Nc1c(C(=O)c2ccccc2)[nH]c2cc(Cl)ccc12`, the melting point was 212 to 213 °C.
`O=C(NCCNCc1cc2ccc(O)cc2o1)C12CC3CC(CC(C3)C1)C2` returned a melting point of 136 to 139 °C.
With `CC(=O)OCCc1nc2c(N)nc3ccccc3c2n1CC(C)C` the figure was 187 to 189 °C; with `c1ccc(-c2ccc(-c3nc4n(n3)CCc3ccccc3-4)cc2)cc1`, 143 to 144 °C.
With `CS(=O)(=O)Nc1ccc(CCOS(C)(=O)=O)cc1` the figure was 134 to 136 °C; with `C#Cc1cc(NC(=O)c2cnn(-c3ccc(Cl)cc3)c2C)ccc1N1CCC(N2CCOCC2)CC1`, 203 to 205 °C.
With `C[C@H](NC(=O)OCc1ccccc1)C(=O)N1CCC[C@H]1C(=O)O` (Cbz-Ala-Pro-OH) the figure was 124 to 125 °C; with `COc1ccc(C2CCCCC2)cc1-c1csc(NC(=O)N2CCN(C3CCOCC3)CC2)n1`, 226 °C; with `O=C(Nc1ccc(OCCN2CCOCC2)c2ccccc12)c1cc(F)cc(OC2CCCCC2)c1`, 116 to 118 °C.
On to `CC(C)CC(O)(Cn1ccnn1)c1ccccc1` (stereo unspecified), for which the melting point was 94 to 95 °C.
The figure for `CCCCCCCCCCCCCCN(O)C(=O)N(C)C` is 64 to 66 °C; for `O=C1CC(c2cccc(-n3ccnc3)c2)=Nc2cc(Cl)c(-c3ccc(F)cc3)cc2N1` it is 209 to 211 °C; for `O=[N+]([O-])c1cccc(-c2cc3c(O)ncnc3o2)c1` it is > 300 °C.
The figure for `COC1C=C(c2ccc(C#N)cc2)C(OC)O1` (stereo unspecified) is 71 to 72 °C; for `CC(C)(C)c1ccc(Sc2cccc3c2C(=O)c2c(Sc4ccc(C(C)(C)C)cc4)ccc(Sc4ccc(C(C)(C)C)cc4)c2C3=O)cc1` it is 228 to 229 °C; for `Fc1ccc(Nc2nc(OCC3CCCCC3)c3[nH]cnc3n2)cc1Cl` it is 225 to 226 °C.
Compound `CC(=O)Oc1ccc(C(C)(C)C)cc1C1(OC(C)=O)C(=O)c2ccccc2C1=O` gave a melting point of 195 to 196 °C.
As to `CC(=C1SC(=O)NC1=O)c1cccc(OCCOc2c(-c3ccc(F)cc3C)n(C)c3ccccc3c2=O)c1`, the melting point lay in the range of 225 to 226 °C.
`CC(Cl)(Cl)C1(O)NC(=O)C(=O)N1` yielded a melting point of 220 °C.
With `CCc1nc2c(C)cc(C)nc2n1Cc1ccc(C(CC(=O)NS(C)(=O)=O)c2ccccc2)cc1` (stereo unspecified) the figure was 118 to 123 °C; with `O=C(O)CCC(NC(=O)c1ccccc1)C(=O)NC(c1ccccc1)c1ccccc1` (stereo unspecified), 128 °C.
Consider `CCN1CCC(c2c[nH]c3ccc(NC(=N)c4cccs4)cc23)CC1`, for which the melting point lay in the range of 150 to 152 °C.
The compound `COc1cc(COc2nn(-c3ccccc3)cc2/C=C/P(=O)(OC)OC)ccc1OCc1nc(-c2ccco2)oc1C` registered a melting point of 107 to 108 °C.
With `O=C(O)Cc1ccc2c(c1)NC(=O)CO2`, the melting point was in the range of 237 to 239 °C.
In the case of `CCCC(N(NC(=O)OC(C)(C)C)C(=O)c1cc(C)cc(C)c1)C(C)(C)C` (stereo unspecified), the melting point was in the range of 116 to 118 °C.
With `CN1CCC[C@H]1c1cnc(Cl)c(Cl)c1C(O)(c1ccccc1)c1ccccc1` the figure was 170 to 172 °C; with `CCc1nn(C2CCC2)c2cc(C(=O)O)ccc12`, 148 to 150 °C.
With `C=CCOc1ccc2sc(=O)oc2c1`, the melting point lay within 78 to 80 °C.
Compound `S=C(Nc1cccc(Br)c1)N1CCCSC1c1ccccc1` (stereo unspecified) registered a melting point of 135 to 137 °C.
The figure for `O=c1n(-c2cc(O)c(Cl)cc2Cl)nc2n1CCCC2` is 211 to 212 °C; for `COC(=O)C(Cc1ccccc1)Oc1ccc2cc(-c3ccc(-c4ccccc4)[nH]3)ccc2c1` (stereo unspecified) it is 140 to 141 °C; for `CCOC(=O)c1cnc2nc(C)c(OCC)cc2c1O` it is 255 to 258 °C.
With `CCOc1ccc(C2=NN(C3CCN(C(=O)NC(C)(C)C)CC3)C(=O)[C@@H]3CC=CC[C@H]23)cc1OCC`, the melting point lay within 145 to 148 °C.
Turning to `CCn1ncc2c(NCc3ccccc3)c3ccccc3nc21`, the melting point lay in the range of 130 to 132 °C.
With `C[C@@H](n1nccn1)[C@](O)(Cn1cncn1)c1ccc(F)cc1F` the figure was 92 to 95 °C.
With `CC(C)(C)c1nc(-c2ccc(F)cc2)c(-c2ccc(S(C)(=O)=O)cc2)o1` the figure was 130 to 131 °C; with `FC(F)(F)c1nnc(Cl)c2cc3ccccn3c12`, 245 to 246 °C.
With `CCOc1nc(N)c2ncn(C3CCCCC3)c2n1` the figure was 134 to 136 °C.
Consider `CN(C)CCC1CCC2(CC1)Nc1cc(Cl)c(S(N)(=O)=O)cc1S(=O)(=O)N2` (stereo unspecified), for which the melting point lay in the range of 238 to 239 °C.
`CCOC(=O)c1cn(-c2nc(NC(C)(C)C)c(F)cc2F)c2c(C)c(F)c(F)cc2c1=O` had a melting point of 207 to 211 °C.
Compound `Cc1cc(Oc2c(Cl)cc(C(F)(F)F)cc2Cl)nn1C(=O)NCCO` had a melting point of 124 to 126 °C.
The compound `CS(=O)(=O)Nc1cccc(Nc2nc(OC3CCOC3)c3nc[nH]c3n2)c1` (stereo unspecified) gave a melting point of 255 to 257 °C.
As for `Cc1nc2n(c(=O)c1CCN1CCN(c3noc4c(C)cccc34)CC1)CCCS2`, the melting point is 170 °C.
The compound `CCCCN(C)Cc1c(-c2ccccc2)sc(N)c1C(=O)c1ccc(Cl)cc1` had a melting point of 84 to 88 °C.
Turning to `CCN(CC)CCOc1ccn2nc(-c3ccccc3)c(-c3ccc(=O)n(C(C)C)n3)c2c1`, the melting point was 92.5 to 94.5 °C.
In turn, `O=C1Cc2c(-c3ccccc3)ccc(Cl)c2N1` gave a melting point of 234 to 236 °C.
With `Cc1ccc(-c2cc3onc(-c4ccccc4)c3c(=O)n2C)cc1` the figure was 155 to 156 °C; with `CCOC(=O)c1nc(N)sc1C(C)=O`, 162 to 164 °C; with `Nc1nc2ccccc2c2c1ncn2CCCCNC(=O)c1ccc(Cn2c(N3CCCC3)nc3ccccc32)cc1`, 150 to 153 °C.
As for `CCCCCCCCCC(=O)Nc1ccc(S(=O)(=O)Nc2nnc(C)s2)cc1`, the melting point was 141 to 142 °C.
Compound `CCOC(=O)c1cc2c(cn1)[nH]c1ccc(N3CCCC3)cc12` came in with a melting point of 259 to 261 °C.
With `Cc1nc(C(=O)N2CCCC2)c2n1-c1ccc(Cl)cc1C(c1ccccc1F)=NC2` the figure was 220 to 221 °C; with `CC(Oc1ccc(Oc2cnc3cc(F)ccc3n2)cc1)C(=O)Nc1ccc(OC(F)(F)F)cc1` (stereo unspecified), 140 to 142 °C.
With `COC(=O)c1cc(C(=O)O)nc2cc(Cl)cc(Cl)c12` the figure was 169 to 171 °C.
As to `CCOC(=O)C1=C(C)NC(C)=C(C(=O)OCCN2CCN(C(c3ccccc3)c3ccccc3)CC2)C1c1cccc([N+](=O)[O-])c1` (stereo unspecified), the melting point was 80 to 82 °C.
The figure for `CCn1c(=N)c(-c2c(Cl)cccc2Cl)cc2cnc(SC)nc21` is 217 to 219 °C; for `CC(=O)N1CC(CCN2CCC(c3ccc(C(F)(F)F)cc3)CC2)c2ccccc21` (stereo unspecified) it is 98 to 100 °C; for `COC(=O)c1sc2ccc(C#N)cc2c1N` it is 248 °C.
The figure for `CN(C(=O)N1CCCC1)c1cccc2cc(-c3nccs3)[nH]c12` is 182 °C.
With `C=CC(C)c1cc(C)c2c(c1O)C(N(C)C(C)=O)C1CCCCC21` (stereo unspecified) the figure was 143 to 145 °C; with `COc1ccc2cc(CC(=O)NO)ccc2c1`, 177 to 180 °C.
Take `Cc1c([N+](=O)[O-])ccc(OCc2ccccc2)c1Cl`: the melting point was in the range of 73 to 74.5 °C.
Regarding `Cc1ccc(F)c(-c2cncc(OC3SCC(O)C(O)C3O)c2)c1` (stereo unspecified), the melting point turned out to be 198 °C.
Compound `CC(=O)N(CCCn1cncn1)C1=Nc2cccc3cccc1c23` registered a melting point of 128 to 129 °C.
Turning to `CC(C)[C@@H](N)C(=O)NCC(F)(F)F`, the melting point was in the range of 43 to 47 °C.
For `CCCN(CCOc1c(Cl)cccc1Cl)C1CCc2c(ccc(OCc3ccc(OC(=O)C(C)C)cc3)c2OCc2ccc(OC(=O)C(C)C)cc2)C1` (stereo unspecified), the melting point lay in the range of 84 to 86 °C.
`CS(=O)(=O)Nc1cnc(NC(=O)[C@H](CC2CCCC2)c2ccc(S(C)(=O)=O)c(Cl)c2)cn1` displayed a melting point of 108 to 110 °C.
The compound `NC(=O)c1ncn2c1[C@@H]1CCN1C(=O)c1cc(Cl)ccc1-2` yielded a melting point of 251 to 253 °C.
The figure for `O=C(O)c1cccc(-c2ccn(-c3ccc(OC(F)F)cc3)n2)c1` is 182 to 183 °C.
With `O=[N+]([O-])c1cnc2cc3c(cc2c1-c1ccccc1Cl)CCC3` the figure was 175 to 176 °C; with `O=C(O)c1ccccc1CN1CCc2sccc2C1`, 200 to 205 °C; with `COC(=O)c1ccc2nc(-c3ccc4c(c3)C(C)(C)CCC4(C)C)[nH]c2c1`, 223 °C.
The figure for `CCN1CCN(c2ccc([N+](=O)[O-])cc2OC)CC1` is 84 to 85 °C.
Compound `O=C(O)c1ccc(-c2nc(-c3cc(C(F)(F)F)cc(C(F)(F)F)c3)co2)cc1` had a melting point of 277 to 279 °C.
In the case of `CC(=O)[C@@H]1CC(=S)N(C(C)=O)C1`, the melting point lay in the range of 49 to 51 °C.
The figure for `COC(=O)C1=C(C)NC(N)=C(C(=O)OC(C)C)C1c1ccccc1C#N` (stereo unspecified) is 211 °C; for `Cc1nc(NC(=O)NS(=O)(=O)c2ccccc2OC(Cl)=CCl)nc2c1CCO2` it is 208 to 210 °C.
The compound `Cn1cncc1C(C)(c1ccc(Cl)cc1)c1ccc2c(c1)c(-c1cccc(Cl)c1)cc(=O)n2C` (stereo unspecified) came in with a melting point of 204 °C.
Consider `Cc1cn(CCCCc2ccccc2)c2ccc(C(=O)Nc3cccc4c(=O)cc(-c5nnn[nH]5)oc34)cc12`, for which the melting point was 186 to 187 °C.
The figure for `CN1C(O)=C(C(=O)Nc2ccc(Cl)cc2)c2ccsc2S1(=O)=O` is 202 to 204 °C; for `COC(=O)C(c1ccc(Cl)cc1)c1c2ccccc2nc2ccccc12` (stereo unspecified) it is 192 to 193 °C.
Compound `CCCCc1nc2c(c(C)c(C)n3nnnc23)n1CC(C)(C)NC(=O)c1ccccc1` had a melting point of 201 to 204 °C.
The figure for `Oc1c2c(nn1-c1ccc(C(F)(F)F)cn1)CCc1ccccc1-2` is 158 to 159 °C.
Turning to `COc1cc2ncc(C#N)c(Nc3cccc(C(F)(F)F)c3)c2cc1OC`, the melting point was in the range of 190 to 193 °C.
The compound `CCCN(CCC)C(C)(C)CC(C)(C)C` came in with a melting point of 43 to 45 °C.
